Assay results taken from PMC4303209, “A novel phosphatidylinositol 3-kinase (PI3K) inhibitor directs a potent FOXO-dependent, p53-independent cell cycle arrest phenotype characterized by the differential induction of a subset of FOXO-regulated genes” (Breast Cancer Research : BCR, 2014).

Tested on: MCF-7 breast cancer cells
Assay: Microarray gene expression analysis (Agilent whole human genome 4 x 44K; compound vs DMSO, LIMMA log2 fold change)
Format: cell-based
Conditions: cell cycle genes

For `Cn1ncc2c(N3CCOCC3)nc(-c3cccc(O)c3)nc21` [ETP-45658], the “STAT5A log2FC” value (Gene 6776) was 0.569, the “STAT5B log2FC” value (Gene 6777) was 0.093 and the “AURKA log2FC” value (Gene 6790) was 0.163. For the same compound, the “STK10 log2FC” value (Gene 6793) was -0.333, the “AURKC log2FC” value (Gene 6795) was 0.077 and the “SUV39H1 log2FC” value (Gene 6839) was -0.686. For the same compound, the “TACC1 log2FC” value (Gene 6867) was 0.112, the “ADAM17 log2FC” value (Gene 6868) was 0.578 and the “TAF1 log2FC” value (Gene 6872) was 0.237. For the same compound, the “TAL1 log2FC” value (Gene 6886) was -0.533, the “TBX3 log2FC” value (Gene 6926) was -0.702 and the “TCF3 log2FC” value (Gene 6929) was -0.071. The “DYNLT3 log2FC” value (Gene 6990) was -0.257, the “DYNLT1 log2FC” value (Gene 6993) was 0.039 and the “TERF1 log2FC” value (Gene 7013) was 0.607. The “TERF2 log2FC” value (Gene 7014) was -0.131, the “TFAP4 log2FC” value (Gene 7023) was 0.268 and the “NR2F2 log2FC” value (Gene 7026) was 0.124. The “TFDP1 log2FC” value (Gene 7027) was -0.484, the “TFDP2 log2FC” value (Gene 7029) was 0.532 and the “TGFB1 log2FC” value (Gene 7040) was -0.640. For the same compound, the “THBS1 log2FC” value (Gene 7057) was -0.941, the “TNF log2FC” value (Gene 7124) was -1.647 and the “TNFAIP3 log2FC” value (Gene 7128) was -0.659. For the same compound, the “TOP2A log2FC” value (Gene 7153) was 0.987, the “TOP2B log2FC” value (Gene 7155) was 1.103 and the “TOP3A log2FC” value (Gene 7156) was -0.181. For the same compound, the “TP53 log2FC” value (Gene 7157) was -0.193, the “TP53BP2 log2FC” value (Gene 7159) was 0.300 and the “TPR log2FC” value (Gene 7175) was 0.896. For the same compound, the “TSC1 log2FC” value (Gene 7248) was 0.395, the “TSC2 log2FC” value (Gene 7249) was -0.413 and the “TSG101 log2FC” value (Gene 7251) was 0.390. For the same compound, the “TTK log2FC” value (Gene 7272) was 1.754, the “TUBG1 log2FC” value (Gene 7283) was -0.283 and the “UBA52 log2FC” value (Gene 7311) was 0.322. For the same compound, the “UBB log2FC” value (Gene 7314) was 0.069, the “UBC log2FC” value (Gene 7316) was 0.294 and the “UBE2B log2FC” value (Gene 7320) was 0.582. The “UBE2D1 log2FC” value (Gene 7321) was 0.498, the “UBE2E1 log2FC” value (Gene 7324) was 0.262 and the “UBE2I log2FC” value (Gene 7329) was -0.395. The “WEE1 log2FC” value (Gene 7465) was -0.074, the “WNT5A log2FC” value (Gene 7474) was 0.075 and the “WNT10B log2FC” value (Gene 7480) was -0.451. The “WNT9A log2FC” value (Gene 7483) was 0.073, the “XPC log2FC” value (Gene 7508) was 0.604 and the “XRCC2 log2FC” value (Gene 7516) was -0.596. The “YWHAG log2FC” value (Gene 7532) was -0.492, the “ZNF16 log2FC” value (Gene 7564) was 0.343 and the “ZBTB17 log2FC” value (Gene 7709) was 0.065. For the same compound, the “PTP4A1 log2FC” value (Gene 7803) was -0.345, the “EVI5 log2FC” value (Gene 7813) was 0.609 and the “ALMS1 log2FC” value (Gene 7840) was 0.617. For the same compound, the “NR4A3 log2FC” value (Gene 8013) was 0.735, the “NUP214 log2FC” value (Gene 8021) was -0.742 and the “FOSL1 log2FC” value (Gene 8061) was -2.502. For the same compound, the “CUL5 log2FC” value (Gene 8065) was -0.432, the “YEATS4 log2FC” value (Gene 8089) was 1.304 and the “HMGA2 log2FC” value (Gene 8091) was -1.656. For the same compound, the “CHAF1B log2FC” value (Gene 8208) was 0.083, the “CLTCL1 log2FC” value (Gene 8218) was -0.209 and the “USP9X log2FC” value (Gene 8239) was 0.632. For the same compound, the “SMC1A log2FC” value (Gene 8243) was 0.142, the “CDC7 log2FC” value (Gene 8317) was 0.500 and the “RAD54L log2FC” value (Gene 8438) was -0.289. The “CUL4B log2FC” value (Gene 8450) was 0.695, the “CUL4A log2FC” value (Gene 8451) was 0.552 and the “CUL1 log2FC” value (Gene 8454) was 0.479. For the same compound, the “KLF11 log2FC” value (Gene 8462) was 1.337, the “OFD1 log2FC” value (Gene 8481) was 1.019 and the “PKP4 log2FC” value (Gene 8502) was 0.170. For the same compound, the “GAS7 log2FC” value (Gene 8522) was -0.364, the “DGKZ log2FC” value (Gene 8525) was -0.549 and the “CAMK1 log2FC” value (Gene 8536) was -0.088. The “CDC14B log2FC” value (Gene 8555) was 0.259, the “CDK10 log2FC” value (Gene 8558) was 0.167 and the “MADD log2FC” value (Gene 8567) was 0.423. The “DYNLL1 log2FC” value (Gene 8655) was -0.944, the “TNKS log2FC” value (Gene 8658) was 0.686 and the “BECN1 log2FC” value (Gene 8678) was 0.486. The “CDC23 log2FC” value (Gene 8697) was 0.451, the “CRADD log2FC” value (Gene 8738) was -0.101 and the “CCNK log2FC” value (Gene 8812) was -0.603. For the same compound, the “BANF1 log2FC” value (Gene 8815) was -0.450, the “CDK5R1 log2FC” value (Gene 8851) was -0.154 and the “IER3 log2FC” value (Gene 8870) was -1.789. The “SPHK1 log2FC” value (Gene 8877) was -0.334, the “CDC16 log2FC” value (Gene 8881) was 0.890 and the “CCNA1 log2FC” value (Gene 8900) was 0.079. For the same compound, the “TIMELESS log2FC” value (Gene 8914) was 0.236, the “PHOX2B log2FC” value (Gene 8929) was -0.044 and the “MBD4 log2FC” value (Gene 8930) was 0.489. The “BTRC log2FC” value (Gene 8945) was 0.108, the “WASL log2FC” value (Gene 8976) was 0.239 and the “RNF8 log2FC” value (Gene 9025) was -0.050. The “PRC1 log2FC” value (Gene 9055) was 0.420, the “USP2 log2FC” value (Gene 9099) was -0.057 and the “USP8 log2FC” value (Gene 9101) was 0.690. The “SMC3 log2FC” value (Gene 9126) was 1.332, the “EXO1 log2FC” value (Gene 9156) was 0.057 and the “ARHGEF2 log2FC” value (Gene 9181) was -0.734. The “ZW10 log2FC” value (Gene 9183) was 0.473, the “BUB3 log2FC” value (Gene 9184) was 0.588 and the “NOLC1 log2FC” value (Gene 9221) was -0.505. For the same compound, the “CCPG1 log2FC” value (Gene 9236) was 0.930, the “MAPKAPK2 log2FC” value (Gene 9261) was -0.374 and the “PIWIL1 log2FC” value (Gene 9271) was 0.057. For the same compound, the “RECQL5 log2FC” value (Gene 9400) was 0.154, the “ROCK2 log2FC” value (Gene 9475) was 0.291 and the “PSMF1 log2FC” value (Gene 9491) was -0.383. For the same compound, the “VPS4B log2FC” value (Gene 9525) was 0.614, the “CLOCK log2FC” value (Gene 9575) was 0.069 and the “MAD2L1BP log2FC” value (Gene 9587) was -0.350. The “ARHGEF10 log2FC” value (Gene 9639) was 0.265, the “MDC1 log2FC” value (Gene 9656) was -0.639 and the “CEP135 log2FC” value (Gene 9662) was 0.532. For the same compound, the “KIAA0430 log2FC” value (Gene 9665) was 0.757, the “CROCC log2FC” value (Gene 9696) was -0.051 and the “ESPL1 log2FC” value (Gene 9700) was 0.453. For the same compound, the “CEP57 log2FC” value (Gene 9702) was 1.199, the “UTP14C log2FC” value (Gene 9724) was 0.374 and the “KNTC1 log2FC” value (Gene 9735) was 0.636. For the same compound, the “RASSF2 log2FC” value (Gene 9770) was 0.675, the “CKAP5 log2FC” value (Gene 9793) was 0.439 and the “SFI1 log2FC” value (Gene 9814) was -0.103. The “RB1CC1 log2FC” value (Gene 9821) was 1.457, the “MELK log2FC” value (Gene 9833) was 0.433 and the “GINS1 log2FC” value (Gene 9837) was -0.673. For the same compound, the “MAGI2 log2FC” value (Gene 9863) was 0.425, the “TLK1 log2FC” value (Gene 9874) was 0.392 and the “POM121 log2FC” value (Gene 9883) was -0.667. The “KLHL21 log2FC” value (Gene 9903) was 0.769, the “DCLRE1A log2FC” value (Gene 9937) was 0.710 and the “USP3 log2FC” value (Gene 9960) was 0.530. For the same compound, the “THOC1 log2FC” value (Gene 9984) was 0.606, the “DMTF1 log2FC” value (Gene 9988) was 0.604 and the “CASP8AP2 log2FC” value (Gene 9994) was 0.813. The “PDCD6IP log2FC” value (Gene 10015) was 0.516, the “BCL2L11 log2FC” value (Gene 10018) was 0.145 and the “CHAF1A log2FC” value (Gene 10036) was -0.375. For the same compound, the “PARP3 log2FC” value (Gene 10039) was 0.325, the “TOM1L1 log2FC” value (Gene 10040) was 0.759 and the “SMC4 log2FC” value (Gene 10051) was 0.902. For the same compound, the “ACTR2 log2FC” value (Gene 10097) was -0.298, the “RAD50 log2FC” value (Gene 10111) was 0.524 and the “KIF20A log2FC” value (Gene 10112) was 0.476. The “OPTN log2FC” value (Gene 10133) was 0.838, the “AKAP9 log2FC” value (Gene 10142) was 1.382 and the “PSME3 log2FC” value (Gene 10197) was -1.314. For the same compound, the “MPHOSPH9 log2FC” value (Gene 10198) was 0.470, the “MPHOSPH6 log2FC” value (Gene 10200) was -0.666 and the “MAEA log2FC” value (Gene 10296) was -0.219. For the same compound, the “PAK4 log2FC” value (Gene 10298) was -0.601, the “NPM2 log2FC” value (Gene 10361) was -0.152 and the “HMG20B log2FC” value (Gene 10362) was 0.276. For the same compound, the “CITED2 log2FC” value (Gene 10370) was 2.261.
